Experimental data taken from patent US10392368B2, “Pyrazolo and triazolo bicyclic compounds as JAK kinase inhibitors” (THERAVANCE BIOPHARMA R&D IP, LLC, priority 2017, dated 2019).

Legend:
[1] = target: T1, JAK2 (Homo sapiens, UniProt O60674); assay: Biochemical JAK2 kinase assay (LanthaScreen)
T1 construct: GST; purchased Life Technologies
Outline: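 pKi values derive from pIC50 via Cheng-Prusoff, with IC50 from a 4-parameter fit of percent-inhibition TR-FRET data using Tb-anti-pSTAT1 (pTyr701) detection. Compound, GST-JAK2 and GFP-STAT1 substrate were pre-incubated 1 h, then ATP started a 1 h ambient reaction (HEPES pH 7.5, 10 mM MgCl2, 1% DMSO).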

[2] = target: T2, JAK3 (Homo sapiens, UniProt P52333); assay: Biochemical JAK3 kinase assay (LanthaScreen); design: GST; purchased Life Technologies; conditions: for JAK3 (pKi)-JAK1 (pKi): selectivity JAK3 over JAK1, difference of pKi
T2 sequence (P52333 1-1124): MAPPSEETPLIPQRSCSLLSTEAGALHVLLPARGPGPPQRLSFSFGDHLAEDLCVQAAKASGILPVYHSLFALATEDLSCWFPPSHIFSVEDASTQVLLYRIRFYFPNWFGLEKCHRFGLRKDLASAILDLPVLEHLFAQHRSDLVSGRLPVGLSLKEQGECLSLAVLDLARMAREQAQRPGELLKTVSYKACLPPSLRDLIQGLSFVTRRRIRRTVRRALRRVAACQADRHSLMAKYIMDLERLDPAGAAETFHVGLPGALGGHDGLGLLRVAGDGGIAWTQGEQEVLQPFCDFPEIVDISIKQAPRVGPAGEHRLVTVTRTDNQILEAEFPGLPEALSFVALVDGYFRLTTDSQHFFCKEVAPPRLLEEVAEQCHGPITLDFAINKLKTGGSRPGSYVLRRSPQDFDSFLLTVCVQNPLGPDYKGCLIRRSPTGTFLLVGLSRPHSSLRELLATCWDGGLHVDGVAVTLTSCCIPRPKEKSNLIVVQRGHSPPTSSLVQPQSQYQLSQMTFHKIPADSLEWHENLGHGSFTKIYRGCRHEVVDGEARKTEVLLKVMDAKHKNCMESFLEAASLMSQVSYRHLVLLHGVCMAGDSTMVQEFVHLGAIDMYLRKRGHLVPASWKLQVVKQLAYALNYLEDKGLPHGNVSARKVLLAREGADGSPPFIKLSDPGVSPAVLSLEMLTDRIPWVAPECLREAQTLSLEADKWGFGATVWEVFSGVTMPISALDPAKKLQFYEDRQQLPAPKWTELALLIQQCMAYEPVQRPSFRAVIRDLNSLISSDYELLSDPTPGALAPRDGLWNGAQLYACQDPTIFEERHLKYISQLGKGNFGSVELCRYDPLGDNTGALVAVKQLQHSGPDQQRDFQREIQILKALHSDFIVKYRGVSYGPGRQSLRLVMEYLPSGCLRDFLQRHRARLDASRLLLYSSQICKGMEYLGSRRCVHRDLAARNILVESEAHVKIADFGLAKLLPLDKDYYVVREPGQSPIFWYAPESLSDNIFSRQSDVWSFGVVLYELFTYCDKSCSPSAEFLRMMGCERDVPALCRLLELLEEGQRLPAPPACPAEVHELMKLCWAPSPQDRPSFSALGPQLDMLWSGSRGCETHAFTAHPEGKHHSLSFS
Outline: (§1)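 TR-FRET read-out: terbium anti-pSTAT1 (pTyr701) antibody, 2 nM, with 10 mM EDTA quench, emission ratio 520/495 nm. GST-JAK phosphorylates GFP-STAT1 peptide for 1 h at ambient temperature after 1 h compound pre-incubation. pIC50 from dose-response converted to pKi by Cheng-Prusoff.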

[3] = target: T3, Tyk2 (Homo sapiens, UniProt P29597); assay: Biochemical Tyk2 kinase assay (LanthaScreen)
T3 construct: GST; purchased Life Technologies
T3 sequence (P29597 whole entry): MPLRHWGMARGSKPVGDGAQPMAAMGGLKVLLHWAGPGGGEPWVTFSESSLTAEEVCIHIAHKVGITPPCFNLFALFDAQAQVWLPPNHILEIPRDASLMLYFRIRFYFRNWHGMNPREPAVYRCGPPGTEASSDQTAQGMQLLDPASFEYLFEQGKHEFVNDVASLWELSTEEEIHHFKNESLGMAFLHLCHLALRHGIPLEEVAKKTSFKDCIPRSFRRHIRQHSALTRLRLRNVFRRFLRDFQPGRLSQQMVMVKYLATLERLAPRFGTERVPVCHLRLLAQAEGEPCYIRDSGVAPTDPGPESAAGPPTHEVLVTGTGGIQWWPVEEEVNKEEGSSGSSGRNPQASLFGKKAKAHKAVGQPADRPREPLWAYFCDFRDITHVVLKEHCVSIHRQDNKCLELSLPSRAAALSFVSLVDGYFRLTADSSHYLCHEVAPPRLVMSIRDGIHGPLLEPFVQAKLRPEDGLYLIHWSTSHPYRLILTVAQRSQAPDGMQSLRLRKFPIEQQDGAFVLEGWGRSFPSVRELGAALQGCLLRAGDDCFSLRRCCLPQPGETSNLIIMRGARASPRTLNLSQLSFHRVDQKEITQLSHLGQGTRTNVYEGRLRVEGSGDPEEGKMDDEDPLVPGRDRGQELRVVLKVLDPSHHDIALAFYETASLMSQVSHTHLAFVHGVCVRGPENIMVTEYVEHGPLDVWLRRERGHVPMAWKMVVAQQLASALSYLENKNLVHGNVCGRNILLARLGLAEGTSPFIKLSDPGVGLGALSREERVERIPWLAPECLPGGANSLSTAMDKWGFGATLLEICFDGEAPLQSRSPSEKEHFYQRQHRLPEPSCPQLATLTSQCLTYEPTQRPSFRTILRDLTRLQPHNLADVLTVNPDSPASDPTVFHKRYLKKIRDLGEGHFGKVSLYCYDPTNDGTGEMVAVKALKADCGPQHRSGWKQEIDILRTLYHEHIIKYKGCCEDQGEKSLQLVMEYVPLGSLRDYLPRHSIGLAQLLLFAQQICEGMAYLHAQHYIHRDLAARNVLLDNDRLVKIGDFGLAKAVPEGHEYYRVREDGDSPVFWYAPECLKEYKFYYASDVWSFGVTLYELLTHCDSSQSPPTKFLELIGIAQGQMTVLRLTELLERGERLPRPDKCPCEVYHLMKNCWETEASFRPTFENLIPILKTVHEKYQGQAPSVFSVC
Outline: as §1

[4] = target: T4, JAK1 (Homo sapiens, UniProt P23458); assay: Biochemical JAK1 kinase assay (LanthaScreen)
T4 construct: GST; purchased Life Technologies
T4 sequence (P23458 whole entry): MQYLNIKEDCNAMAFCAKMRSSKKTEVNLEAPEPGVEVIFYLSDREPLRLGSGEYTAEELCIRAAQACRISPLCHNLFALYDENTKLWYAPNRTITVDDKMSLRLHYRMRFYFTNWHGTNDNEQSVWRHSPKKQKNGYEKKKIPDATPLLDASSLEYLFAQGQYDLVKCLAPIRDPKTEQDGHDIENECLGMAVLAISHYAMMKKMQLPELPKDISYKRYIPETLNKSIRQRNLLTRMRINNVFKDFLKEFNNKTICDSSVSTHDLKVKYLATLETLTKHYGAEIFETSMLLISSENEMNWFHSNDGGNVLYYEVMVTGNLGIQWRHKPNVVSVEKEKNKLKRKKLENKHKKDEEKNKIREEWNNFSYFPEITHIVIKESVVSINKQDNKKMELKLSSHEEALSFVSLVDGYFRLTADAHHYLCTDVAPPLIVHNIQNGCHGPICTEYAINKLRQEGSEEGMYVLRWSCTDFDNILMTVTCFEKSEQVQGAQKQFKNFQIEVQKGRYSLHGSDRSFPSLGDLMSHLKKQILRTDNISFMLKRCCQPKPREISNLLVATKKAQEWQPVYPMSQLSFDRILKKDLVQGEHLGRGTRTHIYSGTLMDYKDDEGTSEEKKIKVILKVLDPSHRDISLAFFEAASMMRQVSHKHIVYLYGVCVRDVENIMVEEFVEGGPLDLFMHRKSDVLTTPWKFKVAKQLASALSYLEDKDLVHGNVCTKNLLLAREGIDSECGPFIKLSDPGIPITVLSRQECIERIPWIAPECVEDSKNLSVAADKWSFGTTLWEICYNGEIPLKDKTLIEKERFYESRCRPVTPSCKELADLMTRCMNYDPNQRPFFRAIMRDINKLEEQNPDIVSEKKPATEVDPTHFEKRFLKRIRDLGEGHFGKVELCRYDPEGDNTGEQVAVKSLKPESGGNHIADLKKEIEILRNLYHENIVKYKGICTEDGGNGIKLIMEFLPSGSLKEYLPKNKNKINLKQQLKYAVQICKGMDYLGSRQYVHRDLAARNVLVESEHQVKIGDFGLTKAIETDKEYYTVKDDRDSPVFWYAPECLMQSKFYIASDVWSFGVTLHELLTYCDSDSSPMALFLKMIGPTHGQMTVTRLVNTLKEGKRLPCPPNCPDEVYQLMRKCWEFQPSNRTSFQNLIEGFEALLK
Outline: as §1

[5] = test system: IL-2 stimulated pSTAT5 in Tall-1 T cells; assay: Cellular JAK3 potency assay: inhibition of IL-2 stimulated pSTAT5 in Tall-1 T cells; type: cell-based, human; conditions: IL-2 stimulated pSTAT5, Tall-1 T cells
Outline: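 Tall-1 human T cells were preincubated with compound for 1 h at 37° C, then stimulated with IL-2 (300 ng/ml final) for 30 min. STAT5 phosphorylation in lysates was read by AlphaLisa bead emission, and IC50 from inhibition curves is given as pIC50 (mean±SD).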

T1 sequence (O60674 whole entry): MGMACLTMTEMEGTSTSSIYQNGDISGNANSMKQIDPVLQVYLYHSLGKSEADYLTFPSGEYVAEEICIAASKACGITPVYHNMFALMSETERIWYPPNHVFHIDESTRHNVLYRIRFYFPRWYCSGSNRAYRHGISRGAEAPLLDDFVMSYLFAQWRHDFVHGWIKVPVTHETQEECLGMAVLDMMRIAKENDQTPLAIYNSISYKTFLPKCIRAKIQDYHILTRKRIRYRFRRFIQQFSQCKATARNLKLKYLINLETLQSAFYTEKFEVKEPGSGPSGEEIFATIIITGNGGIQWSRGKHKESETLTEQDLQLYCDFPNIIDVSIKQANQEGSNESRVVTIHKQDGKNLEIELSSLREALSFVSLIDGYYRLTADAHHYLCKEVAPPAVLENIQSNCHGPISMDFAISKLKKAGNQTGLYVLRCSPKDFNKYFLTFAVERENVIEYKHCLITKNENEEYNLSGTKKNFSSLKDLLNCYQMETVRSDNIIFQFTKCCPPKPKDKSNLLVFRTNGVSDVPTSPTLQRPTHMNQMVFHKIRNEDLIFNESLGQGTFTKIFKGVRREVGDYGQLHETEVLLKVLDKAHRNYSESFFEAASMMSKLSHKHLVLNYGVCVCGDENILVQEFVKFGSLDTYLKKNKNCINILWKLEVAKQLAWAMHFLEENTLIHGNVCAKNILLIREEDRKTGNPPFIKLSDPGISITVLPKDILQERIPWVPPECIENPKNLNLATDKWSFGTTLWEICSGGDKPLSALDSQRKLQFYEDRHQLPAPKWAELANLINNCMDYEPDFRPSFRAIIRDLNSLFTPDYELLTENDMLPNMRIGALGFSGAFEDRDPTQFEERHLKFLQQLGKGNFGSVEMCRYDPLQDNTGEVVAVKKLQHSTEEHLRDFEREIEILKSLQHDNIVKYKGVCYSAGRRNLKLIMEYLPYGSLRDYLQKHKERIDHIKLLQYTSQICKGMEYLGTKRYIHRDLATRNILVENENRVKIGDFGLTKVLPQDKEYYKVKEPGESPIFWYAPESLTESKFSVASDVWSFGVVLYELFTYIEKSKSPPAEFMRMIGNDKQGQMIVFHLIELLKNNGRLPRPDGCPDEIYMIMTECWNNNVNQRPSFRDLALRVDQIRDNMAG

Row | SMILES | JAK 2 (pKi) [1] | JAK 3 (pKi) [2] | JAK3 (pKi)-JAK1 (pKi) [2] | Tyk 2 (pKi) [3] | JAK 1 (pKi) [4] | Tall-1 (pIC50) [5]
1 | C=CC(=O)N1CCC(C)(Nc2cc(-c3ccc(O)c(Cl)c3)cc3[nH]ncc23)CC1 [Compound 7-11] | D (a pKi value between 7 and 8 (Ki between 100 nM and 10 nM)) | A (a pKi value≥10 (Ki≤0.1 nM)) | A (a value of 3 or above) | E (a pKi value of 7 or below (Ki of 100 nM or above)) | E (a pKi value of 7 or below (Ki of 100 nM or above)) | A (a pIC50 value≥7.5 (IC50≤32 nM))
2 | CN(C)C/C=C/C(=O)N1CCC(C)(Nc2cc(-c3ccc(O)c(F)c3)cc3[nH]ncc23)CC1 [Compound 7-12] | D (a pKi value between 7 and 8 (Ki between 100 nM and 10 nM)) | B (a pKi value between 9 and 10 (Ki between 1 nM and 0.1 nM)) | A (a value of 3 or above) | E (a pKi value of 7 or below (Ki of 100 nM or above)) | E (a pKi value of 7 or below (Ki of 100 nM or above)) | B (a pIC50 value between 6.7 (included) and 7.5 (IC50 between 200 nM and 32 nM))
3 | C=CC(=O)N1CCC(C)(Nc2nc(-c3ccc(O)cc3)cc3[nH]ncc23)CC1 [Compound 7-13] | D (a pKi value between 7 and 8 (Ki between 100 nM and 10 nM)) | A (a pKi value≥10 (Ki≤0.1 nM)) | A (a value of 3 or above) | E (a pKi value of 7 or below (Ki of 100 nM or above)) | E (a pKi value of 7 or below (Ki of 100 nM or above)) | A (a pIC50 value≥7.5 (IC50≤32 nM))
4 | C=CC(=O)N1CCC(C)(Nc2nc(-c3ccc(O)c(Cl)c3)cc3[nH]ncc23)CC1 [Compound 7-14] | D (a pKi value between 7 and 8 (Ki between 100 nM and 10 nM)) | B (a pKi value between 9 and 10 (Ki between 1 nM and 0.1 nM)) | B (a value of 2.3 to 3) | E (a pKi value of 7 or below (Ki of 100 nM or above)) | E (a pKi value of 7 or below (Ki of 100 nM or above)) | A (a pIC50 value≥7.5 (IC50≤32 nM))
5 | C=CC(=O)N1CCCC(Oc2cc(-c3ccc(O)cc3)cc3[nH]ncc23)C1 (stereo not drawn) [Compound 8-1] | D (a pKi value between 7 and 8 (Ki between 100 nM and 10 nM)) | B (a pKi value between 9 and 10 (Ki between 1 nM and 0.1 nM)) | B (a value of 2.3 to 3) | E (a pKi value of 7 or below (Ki of 100 nM or above)) | E (a pKi value of 7 or below (Ki of 100 nM or above)) | A (a pIC50 value≥7.5 (IC50≤32 nM))
6 | CN(C)CC=CC(=O)N1CCCC(Oc2cc(-c3ccc(O)c(Cl)c3)cc3[nH]ncc23)C1 (stereo not drawn) [Compound 8-2] | D (a pKi value between 7 and 8 (Ki between 100 nM and 10 nM)) | B (a pKi value between 9 and 10 (Ki between 1 nM and 0.1 nM)) | A (a value of 3 or above) | E (a pKi value of 7 or below (Ki of 100 nM or above)) | E (a pKi value of 7 or below (Ki of 100 nM or above)) | B (a pIC50 value between 6.7 (included) and 7.5 (IC50 between 200 nM and 32 nM))
7 | C=CC(=O)N1CCCC(Oc2cc(-c3ccc(O)c(Cl)c3)cc3[nH]ncc23)C1 (stereo not drawn) [Compound 8-3] | D (a pKi value between 7 and 8 (Ki between 100 nM and 10 nM)) | B (a pKi value between 9 and 10 (Ki between 1 nM and 0.1 nM)) | A (a value of 3 or above) | E (a pKi value of 7 or below (Ki of 100 nM or above)) | E (a pKi value of 7 or below (Ki of 100 nM or above)) | A (a pIC50 value≥7.5 (IC50≤32 nM))
